Test results: patent publication US20150173358A1, “HERBICIDAL COMPOSITIONS CONTAINING IMAZAPIC, AMINOPYRALID AND OPTIONALLY METSULFURON” (DOW AGROSCIENCES LLC, priority 2013, published 2015)

System: BOIVE: whitehead broom (Borerria verticillata)
Assay: Postemergence herbicidal activity of mixtures in the field (visual weed control)
Format: in vivo
Protocol: Field trials were conducted in Brazil in pasture area cultivated with Brachiaria brizantha using standard herbicide small-plot research methodology. The plot size used was 3×8 meter (m; width×length) with 4 replicates per treatment. The pasture was grown using normal cultural practices for fertilization, management, and maintenance to ensure good growth of the crop and the weeds.
All treatments in the field trials were applied using a carbon dioxide (CO2) backpack air sprayer with flat fan nozzles (110.03°), calibrated to apply 250 liters per hectare (L/ha) spray volume at approximately 35 pounds per square inch (PSI). Formulations of aminopyralid (triisopropanolammonium salt) at 100 grams acid equivalent per hectare (g ae/ha) and aminopyralid (potassium salt, 525grams acid equivalent per kilogram (g ae/kg))+metsulfuron-methyl (94.5 grams active ingredient per kilogram (g ai/kg)) at 118 grams per hectare (g/ha) were mixed with imazapic at 70 and 140 g ae/ha and water+Joint Mineral Oil at appropriate formulated product rates to achieve the desired rates based on a unit area of application (hectare) as shown. Treatments were rated at 15 to 281 days after application (DAA) as compared to the untreated control plants. Visual weed control of BOIVE was scored on a scale of 0 to 100 percent where 0 corresponds to no injury and 100 corresponds to complete kill.
All treatment results, both for the single product and mixtures, are an average of 3 to 4 replicates and the tank-mix interactions are significant at the […] level.
Colby's equation was used to determine the herbicidal effects expected from the mixtures (Colby, S.R. Calculation of the synergistic and antagonistic response of herbicide combinations. Weeds 1967, 15, 20-22). […]
The experiments described herein in Table 2 were performed such that the “B” component in Colby's equation was the activity for the combination of aminopyralid and metsulfuron and only the activity for the combination was determined. […]

Row | Compound | % Visual Control BOIVE (281 DAA) Obs (Aminopyralid (triisopropanolammonium salt) 100 g ae/ha alone) [%] | % Visual Control BOIVE (281 DAA) Obs (Imazapic (ammonium salt) 70 g ae/ha alone, postemergence field trial, Brazil pasture) [%] | % Visual Control BOIVE (281 DAA) Obs (Imazapic (ammonium salt) 140 g ae/ha alone, postemergence field trial) [%]
1 | Nc1cc(Cl)nc(C(=O)O)c1Cl [Aminopyralid, 4-amino-3,6-dichloro-2-pyridinecarboxylic acid] | 41 | – | –
2 | Cc1cnc(C2=NC(C)(C(C)C)C(=O)N2)c(C(=O)O)c1 (racemic) [Imazapic, (±)-2-[4,5-dihydro-4-methyl-4-(1-methylethyl)-5-oxo-1H-imidazol-2-yl]-5-methyl-3-pyridinecarboxylic acid] | – | 0 | 14
